Experimental data reported in patent US8816129B2, “PTP1B inhibitors, synthesis thereof and application thereof in preparation of medicaments for treating type 2 diabetes mellitus” (Institute of Oceanology, Chinese Academy of Sciences, priority 2010, dated 2014).
Like-named read-outs stand apart in the source and are kept apart here.

Assays:
[1] = target: T1, human recombinant PTP1B (hGST-PTP1B) (Homo sapiens, UniProt P18031); test: PTP1B inhibitory assay (pNPP hydrolysis, absorbance at 405 nm); assay type: biochemical; details: 2 mM pNPP, 30 nM hGST-PTP1B, pH 6.5, 30° C.; for inhibition at 5 µg/mL: 5 μg/mL compound; for inhibition at 20 µg/mL: 20 μg/mL compound
T1 construct: made in house; host or cells: E. coli BL21
T1 sequence (P18031 1-435): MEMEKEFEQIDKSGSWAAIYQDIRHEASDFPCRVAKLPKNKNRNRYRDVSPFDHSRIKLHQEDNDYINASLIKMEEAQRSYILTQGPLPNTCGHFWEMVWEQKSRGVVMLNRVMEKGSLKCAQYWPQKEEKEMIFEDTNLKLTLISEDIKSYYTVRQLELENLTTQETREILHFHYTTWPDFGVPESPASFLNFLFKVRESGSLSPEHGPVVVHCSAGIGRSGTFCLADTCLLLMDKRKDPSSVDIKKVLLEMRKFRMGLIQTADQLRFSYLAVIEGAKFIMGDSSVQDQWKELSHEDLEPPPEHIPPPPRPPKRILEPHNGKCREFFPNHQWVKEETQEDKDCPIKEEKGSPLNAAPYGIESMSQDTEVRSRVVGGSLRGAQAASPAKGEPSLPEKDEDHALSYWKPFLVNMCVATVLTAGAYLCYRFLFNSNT
Description: Construct human recombinant PTP1B engineering bacteria hGST-PTP1B-BL21 via molecular biology methods, and purify it through GST-tagged affinity chromatography. The principle is that the product pNP, which is enzymolysis of pNPP by PTP1B, absorbs at 405 nm. The activity of PTP1B inhibition can be measured by calculating the quantity of pNP.
Compounds 1-12 were dissolved in DMSO. 2 μL of samples were placed into the system (50 mM Tris-HCl, pH 6.5, 2 mM pNPP, 2% DMSO, 30 nM hGST-PTP1B). DMSO was distributed as negative control and Na3VO4 was positive control. The reaction was at 30° C. and monitored at 405 nm for 3 min. Inhibitory rate was calculated according to the following formula: % inhibition=100% ×[(Vsample−VDMSO)/[…]]

PTP1B = target: T2, PTP1B (Homo sapiens, UniProt P18031); details: background statement; read-out: IC50 (PTP1B inhibitor); cited from earlier work
T2 sequence (P18031 1-435): T1 sequence (P18031 1-435)

Structure (SMILES)	inhibition at 5 µg/mL [1] [%]	inhibition at 20 µg/mL [1] [%]	IC50 ([1]; read-out: IC50 (converted)) [nM]	IC50 [1] [µg/mL]	IC50 (PTP1B) [nM]
COc1cc(C(=O)c2c(C(Br)Br)cc(OC)c(OC)c2Br)c(Br)c(Br)c1OC [Compound 1, (2′-bromo-6′-(dibromomethyl)-3′,4′-dimethoxyphenyl)-(2,3-dibromo-4,5-dimethoxyphenyl)-methanone]	47.9	101	1840	–	–
CCCCOCc1cc(O)c(O)c(Br)c1Cc1cc(O)c(O)c(Br)c1Br [Compound 4, 3,4-dibromo-5-[2′-bromo-6′-(butoxymethyl)-3′,4′-dihydroxy-benzyl]-benzene-1,2-diol]	27.2	64.6	–	–	–
CC(C)COCc1cc(O)c(O)c(Br)c1Cc1cc(O)c(O)c(Br)c1Br [Compound 5, 3,4-dibromo-5-[2′-bromo-3′,4′-dihydroxy-6′-(isobutoxymethyl)-benzyl]-benzene-1,2-diol]	48.3	96.2	–	0.83	–
CCC(C)OCc1cc(O)c(O)c(Br)c1Cc1cc(O)c(O)c(Br)c1Br (centres unmarked) [Compound 6, 3,4-dibromo-5-(2-bromo-6-(sec-butoxymethyl)-3,4-dihydroxybenzyl)benzene-1,2-diol]	42.4	96.5	1820	–	–
CCCCOCc1cc(O)c(O)c(Br)c1Cc1c(Br)c(O)c(O)c(Br)c1Br [Compound 10, 3,4,6-tribromo-5-(2-bromo-6-(butoxymethyl)-3,4-dihydroxybenzyl)benzene-1,2-diol]	–	99	–	–	–
CC(C)COCc1cc(O)c(O)c(Br)c1Cc1c(Br)c(O)c(O)c(Br)c1Br [Compound 11, 3,4,6-tribromo-5-(2-bromo-3,4-dihydroxy-6-(isobutoxymethyl)benzyl)benzene-1,2-diol]	–	101	–	–	–
CCc1oc2ccccc2c1C(=O)c1cc(Br)c(O)c(Br)c1 [benzbromarone]	–	–	–	–	26000

Further lines, with some results ahead:

inhibition at 5 µg/mL [1] [%]	inhibition at 20 µg/mL [1] [%]	IC50 ([1]; read-out: IC50 (converted)) [nM]	Structure (SMILES)	IC50 [1] [µg/mL]	IC50 (PTP1B) [nM]
55.7	86.2	–	CCCOCc1cc(O)c(O)c(Br)c1Cc1cc(O)c(O)c(Br)c1Br [Compound 2, 3,4-dibromo-5-[2′-bromo-3′,4′-dihydroxy-6′-(propoxymethyl)-benzyl]-benzene-1,2-diol]	1.08	–
68.2	93.9	628	CC(C)OCc1cc(O)c(O)c(Br)c1Cc1cc(O)c(O)c(Br)c1Br [Compound 3, 3,4-dibromo-5-[2′-bromo-3′,4′-dihydroxy-6′-(isopropoxymethyl)-benzyl]-benzene-1,2-diol]	–	–
–	101	–	COc1cc(Br)c(Cc2cc(OC)c(OC)c(Br)c2Cc2cc(OC)c(OC)c(Br)c2Br)cc1OC [Compound 7, 2,3-dibromo-1-[2′-bromo-6′-(2″-bromo-4″,5″-dimethoxybenzyl)-3′,4′-dimethoxybenzyl]-4,5-dimethoxybenzene]	–	–
42.4	98.8	1630	CCCOCc1cc(O)c(O)c(Br)c1Cc1c(Br)c(O)c(O)c(Br)c1Br [Compound 8, 3,4,6-tribromo-5-(2-bromo-3,4-dihydroxy-6-(propoxymethyl)benzyl)benzene-1,2-diol]	–	–
–	98.5	–	CC(C)OCc1cc(O)c(O)c(Br)c1Cc1c(Br)c(O)c(O)c(Br)c1Br [Compound 9, 3,4,6-tribromo-5-(2-bromo-3,4-dihydroxy-6-(isopropoxymethyl)benzyl)benzene-1,2-diol]	–	–
–	57.7	–	Cc1cc(O)c(O)c(Br)c1Cc1c(Br)c(O)c(O)c(Br)c1Br [Compound 12, 3,4,6-tribromo-5-(2-bromo-3,4-dihydroxy-6-methylbenzyl)benzene-1,2-diol]	–	–
